The subject of the assay is water hyacinth. In words: Experiment 5 foliar application to water hyacinths. In kind it is in vivo, Eichhornia crassipes Solms. More on the design: key to Killing index: 0 = no effect, 5 = death. As to conditions: for Reproduction-inhibiting effect: 3 months; for Killing index: 21 days. The text has this:
The detail of the assessment made in the following Experiments of the invention was as follows:
Four months after treatment, evaluation was made for inhibition of reproduction expressed in terms of symbols ranging from (-) to (+++) where (-) means no reproduction, namely complete suppression of reproduction, (±) remarkable suppression of reproduction; (+) considerable suppression of reproduction; (++) medium supprestion of reproduction; and (+++) no suppression of reproduction.
Water was placed in 20 cm.×30 cm. plastic vessels and a liquid fertilizer was added thereto. Two water hyacinths were floated in each vessel.
0.1 or 0.2% aqueous solutions of each of the compounds of the invention listed in Table 7 were sprayed by foliar application in an amount of 100 liter per 10 are. As a surfactant, 0.1% of octylphenyl polyoxyethanol was added.
The killing index (0, no effect; 5, death) after 21 days and 3 months, and the reproduction-inhibiting effect (-, no reproduction; +++, maximum reproduction) after 3 months were determined.

Where a name gives a salt, the structure may show the parent alone.

This note sets out measurements from patent US4226610A, “Herbicidal compounds, preparation thereof and herbicides containing the same” (Meiji Selka Kaisha, Ltd., priority 1978, dated 1980).

On to `CP(=O)(O)CCC(N)C(=O)O` (racemic) [DL-AMPB diammonium salt], for which the Reproduction-inhibiting effect result by setting is: (0.1%) “++”; (0.2%) “±”.

As for `CP(=O)(O)CCC(N)C(=O)O` (racemic) [DL-AMPB dipotassium salt], the Reproduction-inhibiting effect entry by setting is: (0.1%) “++”; (0.2%) “±”.

For the molecule `CP(=O)(O)CCC(N)C(=O)O` (racemic) [DL-AMPB disodium salt], the Reproduction-inhibiting effect entry was “++” (0.1%) and “±” (0.2%).

As to `CP(=O)(O)CCC(N)C(=O)O` (racemic) [DL-AMPB mono-n-butylammonium salt], the Reproduction-inhibiting effect entry reads like this: (0.1%) “++”; (0.2%) “±”.

For the molecule `CP(=O)(O)CCC(N)C(=O)O` (racemic) [DL-AMPB monodiethylammonium salt], the Reproduction-inhibiting effect entry (0.1%) was “++” and the Reproduction-inhibiting effect entry (0.2%) is “±”.

As to `CP(=O)(O)CCC(N)C(=O)O` (racemic) [DL-AMPB monoisopropylammonium salt], the Reproduction-inhibiting effect entry was “++” (0.1%) and “±” (0.2%).

Consider `CP(=O)(O)CCC(N)C(=O)O` (racemic) [DL-AMPB monopotassium salt], for which the Reproduction-inhibiting effect entry (0.1%) is “++” and the Reproduction-inhibiting effect result (0.2%) is given as “±”.

On to `CP(=O)(O)CCC(N)C(=O)O` (racemic) [DL-AMPB, DL-2-amino-4-methylphosphinobutanoic acid], for which the Reproduction-inhibiting effect entry is given as “++” (0.1%) and “±” (0.2%).

In the case of `CP(=O)(O)CC[C@H](N)C(=O)O` [L-AMPB diammonium salt], the Reproduction-inhibiting effect entry (0.1%) was “±” and the Reproduction-inhibiting effect entry (0.2%) is listed as “-”.

In the case of `CP(=O)(O)CC[C@H](N)C(=O)O` [L-AMPB dipotassium salt], the Reproduction-inhibiting effect entry (0.1%) is on record as “±” and the Reproduction-inhibiting effect result (0.2%) is reported as “-”.

Regarding `CP(=O)(O)CC[C@H](N)C(=O)O` [L-AMPB disodium salt], the Reproduction-inhibiting effect result by setting is: (0.1%) “±”; (0.2%) “-”.

With `CP(=O)(O)CC[C@H](N)C(=O)O` [L-AMPB mono-n-butylammonium salt], the Reproduction-inhibiting effect entry is on record as “±” (0.1%) and “-” (0.2%).

`CP(=O)(O)CC[C@H](N)C(=O)O` [L-AMPB monodiethylammonium salt]: the Reproduction-inhibiting effect entry is recorded as “±” (0.1%) and “-” (0.2%).

Turning to `CP(=O)(O)CC[C@H](N)C(=O)O` [L-AMPB monoisopropylammonium salt], the Reproduction-inhibiting effect entry is, setting by setting: (0.1%) “±”; (0.2%) “-”.

In the case of `CP(=O)(O)CC[C@H](N)C(=O)O` [L-AMPB monopotassium salt], the Reproduction-inhibiting effect entry is on record as “±” (0.1%) and “-” (0.2%).

In the case of `CP(=O)(O)CC[C@H](N)C(=O)O` [L-AMPB, L-2-amino-4-methylphosphinobutanoic acid], the Reproduction-inhibiting effect entry reads like this: (0.1%) “±”; (0.2%) “-”.

Regarding `C[C@H](NC(=O)[C@H](C)NC(=O)[C@@H](N)CCP(C)(=O)O)C(=O)O` [SF-1293 diammonium salt], the Reproduction-inhibiting effect entry is “+” (0.1%) and “-” (0.2%). The molecule also had a Killing index (0.2%) of 4.5.

As for `C[C@H](NC(=O)[C@H](C)NC(=O)[C@@H](N)CCP(C)(=O)O)C(=O)O` [SF-1293 dipotassium salt], the Reproduction-inhibiting effect result (0.1%) was “+”. In addition, where the note is “0.2%”, the Reproduction-inhibiting effect result is reported as “-” and the Killing index was 4.5.

`C[C@H](NC(=O)[C@H](C)NC(=O)[C@@H](N)CCP(C)(=O)O)C(=O)O` [SF-1293 disodium salt]: the Reproduction-inhibiting effect result is, setting by setting: (0.1%) “+”; (0.2%) “-”. This molecule displayed a Killing index (0.2%) of 4.5.

Turning to `C[C@H](NC(=O)[C@H](C)NC(=O)[C@@H](N)CCP(C)(=O)O)C(=O)O` [SF-1293 mono-n-butylammonium salt], under “0.1%”, the Reproduction-inhibiting effect result is “+”. In addition, where the note is “0.2%”, the Reproduction-inhibiting effect entry is recorded as “-” and the Killing index is listed as 4.5.

As for `C[C@H](NC(=O)[C@H](C)NC(=O)[C@@H](N)CCP(C)(=O)O)C(=O)O` [SF-1293 monodiethylammonium salt], the Reproduction-inhibiting effect result (0.1%) was “+”. Also, where the note is “0.2%”, the Reproduction-inhibiting effect entry is reported as “-” and the Killing index is reported as 4.5.

Consider `C[C@H](NC(=O)[C@H](C)NC(=O)[C@@H](N)CCP(C)(=O)O)C(=O)O` [SF-1293 monodiisopropylammonium salt], for which the Reproduction-inhibiting effect entry (0.1%) is on record as “+”. In addition, under “0.2%”, the Reproduction-inhibiting effect result is “-” and the Killing index is listed as 4.5.

Regarding `C[C@H](NC(=O)[C@H](C)NC(=O)[C@@H](N)CCP(C)(=O)O)C(=O)O` [SF-1293 monopotassium salt], under “0.1%”, the Reproduction-inhibiting effect entry is “+”. Moreover, for the setting “0.2%”, the Reproduction-inhibiting effect result is “-” and the Killing index was found to be 4.5.

For the molecule `C[C@H](NC(=O)[C@H](C)NC(=O)[C@@H](N)CCP(C)(=O)O)C(=O)O` [SF-1293, (L-2-amino-4-methylphosphinobutyryl)-L-alanyl-L-alanine], the Reproduction-inhibiting effect result (0.1%) is recorded as “+”. Also, for the setting “0.2%”, the Reproduction-inhibiting effect result is given as “-” and the Killing index was found to be 4.5.
